Calls of active or inactive are those of the source. The calls are words filed in the database; no cut-off is given here.
Key:
[1] = tested on: SK-HEP1; test: Antiproliferative activity against human SK-HEP1 cells cultured as 2D cells assessed as inhibition of cell growth at 10 uM incubated for 72 hrs by CCK-8 assay; assay type: functional, cell-based
[2] = tested on: SK-HEP1; test: Antiproliferative activity against human SK-HEP1 cells cultured as 3D cells assessed as inhibition of cell growth at 10 uM incubated for 72 hrs by CellTiter-Lumi assay; assay type: functional, cell-based
[3] = tested on: HCCLM3; test: Antiproliferative activity against human HCCLM3 cells cultured as 3D cells assessed as inhibition of colony formation at 25 uM incubated for 21 days by 3D soft-agar based microscopic analysis; assay type: functional, cell-based; conditions: time 21.0 day
[4] = tested on: HCCLM3; test: Antiproliferative activity against human HCCLM3 cells cultured as 3D cells assessed as inhibition of cell growth at 10 uM incubated for 72 hrs by CellTiter-Lumi assay; assay type: functional, cell-based
[5] = tested on: HCCLM3; test: Antiproliferative activity against human HCCLM3 cells cultured as 2D cells assessed as inhibition of cell growth at 10 uM incubated for 72 hrs by CCK-8 assay; assay type: functional, cell-based
[6] = Acute toxicity in Kunming mouse assessed as effect on uric acid level in kidney at 100 mg/kg,ip administration measured after 14 days; assay type: organism-based; conditions: in vivo, 336 h, time 14 day
[7] = tested on: SK-HEP1; test: Antiproliferative activity against human SK-HEP1 cells cultured as 3D cells assessed as inhibition of cell growth at 25 uM incubated for 72 hrs by CellTiter-Lumi assay; assay type: functional, cell-based
[8] = tested on: SK-HEP1; test: Inhibition of cell migration in TARBP2-knockout human SK-HEP1 cells at 1 to 25 uM incubated for 24 hrs by transwell assay; assay type: functional, cell-based; conditions: dose 1-25 µM
[9] = tested on: HCCLM3; test: Inhibition of cell migration in human HCCLM3 cells incubated for 24 hrs by transwell assay; assay type: functional, cell-based
[10] = Acute toxicity in Kunming mouse assessed as effect on ALT level in liver at 100 mg/kg,ip administration measured after 14 days; assay type: organism-based; conditions: in vivo, 336 h, time 14 day
[11] = tested on: SK-HEP1; test: Antiproliferative activity against TARBP2-knockout human SK-HEP1 cells cultured as 3D cells assessed as inhibition of cell growth at 25 uM incubated for 72 hrs by CellTiter-Lumi assay; assay type: functional, cell-based
[12] = Inhibition of PI3K/AKT/mTOR signaling pathway in human HCCLM3 cells assessed as downregulation of mTOR phosphorylation incubated for 24 hrs by Western blotting analysis; assay type: cell-based
[13] = Acute toxicity in Kunming mouse assessed as effect on total bilirubin level in liver at 100 mg/kg,ip administration measured after 14 days; assay type: organism-based; conditions: in vivo, 336 h, time 14 day
[14] = Acute toxicity in Kunming mouse assessed as effect on creatine kinase level in heart at 100 mg/kg,ip administration measured after 14 days; assay type: organism-based; conditions: in vivo, 336 h, time 14 day
[15] = tested on: HCCLM3; test: Inhibition of cell migration in TARBP2-knockout human HCCLM3 cells at 1 to 25 uM incubated for 24 hrs by transwell assay; assay type: functional, cell-based; conditions: dose 1-25 µM
[16] = tested on: HCCLM3; test: Antiproliferative activity against human HCCLM3 cells cultured as 3D cells assessed as inhibition of cell growth at 25 uM incubated for 72 hrs by CellTiter-Lumi assay; assay type: functional, cell-based
[17] = Acute toxicity in Kunming mouse assessed as body weight loss at 100 mg/kg,ip administration measured after 14 days; assay type: organism-based; conditions: in vivo, 336 h, time 14 day
[18] = Acute toxicity in Kunming mouse assessed as effect on creatinine level in kidney at 100 mg/kg,ip administration measured after 14 days; assay type: organism-based; conditions: in vivo, 336 h, time 14 day
[19] = tested on: HCCLM3; test: Inhibition of cell migration in human HCCLM3 cells at 10 uM incubated for 24 hrs by wound healing assay; assay type: functional, cell-based
[20] = Acute toxicity in Kunming mouse assessed as effect on ALB level in liver at 100 mg/kg,ip administration measured after 14 days; assay type: organism-based; conditions: in vivo, 336 h, time 14 day
[21] = tested on: HCCLM3; test: Antiproliferative activity against TARBP2-knockout human HCCLM3 cells cultured as 3D cells assessed as inhibition of cell growth at 25 uM incubated for 72 hrs by CellTiter-Lumi assay; assay type: functional, cell-based
[22] = Acute toxicity in Kunming mouse assessed as effect on direct bilirubin level in liver at 100 mg/kg,ip administration measured after 14 days; assay type: organism-based; conditions: in vivo, 336 h, time 14 day
[23] = tested on: SK-HEP1; test: Inhibition of cell migration in human SK-HEP1 cells at 10 uM incubated for 24 hrs by wound healing assay; assay type: functional, cell-based
[24] = species: Homo sapiens; test: Inhibition of recombinant human TRBP/recombinant human Dicer protein protein interaction at 25 uM by indirect-competition-ELISA
[25] = Acute toxicity in Kunming mouse assessed as pathological change in lung at 100 mg/kg,ip administration measured after 14 days by hematoxylin and eosin staining based microscopic analysis; assay type: organism-based; conditions: in vivo, 336 h, time 14 day
[26] = tested on: SK-HEP1; test: Inhibition of cell migration in human SK-HEP1 cells at 10 uM incubated for 24 hrs by transwell assay; assay type: functional, cell-based
[27] = tested on: HCCLM3; test: Inhibition of cell migration in human HCCLM3 cells at 10 uM incubated for 24 hrs by transwell assay; assay type: functional, cell-based
[28] = tested on: HCCLM3; test: Antiproliferative activity against human HCCLM3 cells assessed as upregulation of SMAD7 expression at 10 uM by Western blotting analysis; assay type: functional, cell-based
[29] = Acute toxicity in Kunming mouse assessed as pathological change in kidney at 100 mg/kg,ip administration measured after 14 days by hematoxylin and eosin staining based microscopic analysis; assay type: organism-based; conditions: in vivo, 336 h, time 14 day
[30] = tested on: HCCLM3; test: Antiproliferative activity against human HCCLM3 cells assessed as downregulation of SMAD2 phosphorylation at 10 uM by Western blotting analysis; assay type: functional, cell-based
[31] = Inhibition of PI3K/AKT/mTOR signaling pathway in human HCCLM3 cells assessed as downregulation of AKT phosphorylation incubated for 24 hrs by Western blotting analysis; assay type: cell-based
[32] = tested on: SK-HEP1; test: Inhibition of cell migration in human SK-HEP1 cells incubated for 24 hrs by transwell assay; assay type: functional, cell-based
[33] = Acute toxicity in Kunming mouse assessed as pathological change in spleen at 100 mg/kg,ip administration measured after 14 days by hematoxylin and eosin staining based microscopic analysis; assay type: organism-based; conditions: in vivo, 336 h, time 14 day
[34] = tested on: HCCLM3; test: Antiproliferative activity against human HCCLM3 cells assessed as downregulation of SMAD3 phosphorylation incubated for 24 hrs by Western blotting analysis; assay type: functional, cell-based
[35] = tested on: HCCLM3; test: Antiproliferative activity against human HCCLM3 cells assessed as downregulation of SMAD3 phosphorylation at 10 uM by Western blotting analysis; assay type: functional, cell-based
[36] = Acute toxicity in Kunming mouse assessed as pathological change in heart at 100 mg/kg,ip administration measured after 14 days by hematoxylin and eosin staining based microscopic analysis; assay type: organism-based; conditions: in vivo, 336 h, time 14 day
[37] = Acute toxicity in Kunming mouse assessed as effect on AST level in liver at 100 mg/kg,ip administration measured after 14 days; assay type: organism-based; conditions: in vivo, 336 h, time 14 day
[38] = tested on: HCCLM3; test: Antiproliferative activity against human HCCLM3 cells assessed as upregulation of SMAD7 expression incubated for 24 hrs by Western blotting analysis; assay type: functional, cell-based
[39] = Acute toxicity in Kunming mouse assessed as effect on lactate dehydrogenase level in heart at 100 mg/kg,ip administration measured after 14 days; assay type: organism-based; conditions: in vivo, 336 h, time 14 day
[40] = Acute toxicity in Kunming mouse assessed as animal death at 100 mg/kg,ip administration measured after 14 days; assay type: organism-based; conditions: in vivo, 336 h, time 14 day
[41] = Acute toxicity in Kunming mouse assessed as effect on urea level in kidney at 100 mg/kg,ip administration measured after 14 days; assay type: organism-based; conditions: in vivo, 336 h, time 14 day
[42] = tested on: HCCLM3; test: Antiproliferative activity against human HCCLM3 cells assessed as downregulation of SMAD2 phosphorylation incubated for 24 hrs by Western blotting analysis; assay type: functional, cell-based
[43] = Toxicity in BALB/c mouse xenografted with human HCCLM3 cells assessed as body weight loss at 50 mg/kg,ip administration measured after 22 days; assay type: organism-based; conditions: in vivo, 528 h, time 22 day
[44] = Toxicity in BALB/c mouse xenografted with human HCCLM3 cells assessed as pathological change in kidney at 50 mg/kg,ip administration measured after 22 days by hematoxylin and eosin staining based microscopic analysis; assay type: organism-based; conditions: in vivo, 528 h, time 22 day
[45] = Toxicity in BALB/c mouse xenografted with human HCCLM3 cells assessed as pathological change in liver at 50 mg/kg,ip administration measured after 22 days by hematoxylin and eosin staining based microscopic analysis; assay type: organism-based; conditions: in vivo, 528 h, time 22 day
[46] = Toxicity in BALB/c mouse xenografted with human HCCLM3 cells assessed as change in mental state at 50 mg/kg,ip administration measured after 22 days; assay type: organism-based; conditions: in vivo, 528 h, time 22 day
[47] = Toxicity in BALB/c mouse xenografted with human HCCLM3 cells assessed as pathological change in heart at 50 mg/kg,ip administration measured after 22 days by hematoxylin and eosin staining based microscopic analysis; assay type: organism-based; conditions: in vivo, 528 h, time 22 day
[48] = Toxicity in BALB/c mouse xenografted with human HCCLM3 cells assessed as pathological change in lung at 50 mg/kg,ip administration measured after 22 days by hematoxylin and eosin staining based microscopic analysis; assay type: organism-based; conditions: in vivo, 528 h, time 22 day
[49] = tested on: HCCLM3; test: Antitumor activity against human HCCLM3 cells xenografted in BALB/c mouse assessed as inhibition of tumor growth at 50 mg/kg,ip administration measured after 22 days; assay type: functional, organism-based; conditions: time 22.0 day
[50] = Toxicity in BALB/c mouse xenografted with human HCCLM3 cells assessed as pathological change in spleen at 50 mg/kg,ip administration measured after 22 days by hematoxylin and eosin staining based microscopic analysis; assay type: organism-based; conditions: in vivo, 528 h, time 22 day
[51] = Half life in Wistar rat at 100 mg/kg,po administration measured upto 96 hrs by HPLC-UV analysis; conditions: in vivo

Question: Which Activity [1] does the source give for `Cc1cc(-c2nc(C)c(C(=O)O)s2)cc(C)c1OCC1CC1` here?
Answer: The Activity was “inactive”.

Question: And the Activity [2]?
Answer: The Activity was “Active”.

Question: What about the Activity [3] of the same compound?
Answer: The Activity was “Active”.

Question: What about the Activity [4] of the same compound?
Answer: Its Activity is “Active”.

Question: What about the Activity [5] of the same compound?
Answer: Its Activity is “inactive”.

Question: Which results are given for `Cc1cc(-c2nc(C)c(C(=O)O)s2)ccc1OCC1CC1`?
Answer: Activity [1]: inactive; Activity [5]: inactive

Question: What does the source list for `COCCOc1ccc(-c2nc(C)c(C(=O)O)s2)cc1`?
Answer: Activity [6]: Non-toxic; Activity [7]: Active; inhibition [8]: inactive; inhibition [9]: Dose-dependent-effect; Activity [10]: Non-toxic; Activity [11]: inactive; inhibition [12]: Dose-dependent-effect; Activity [13]: Non-toxic; Activity [14]: Non-toxic; inhibition [15]: inactive; Activity [16]: Active; Activity [17]: Non-toxic; Activity [1]: inactive; Activity [18]: Non-toxic; inhibition [19]: Active; Activity [20]: Non-toxic; Activity [21]: inactive; Activity [2]: Active; Activity [22]: Non-toxic; inhibition [23]: Active; inhibition [24]: Active; Activity [25]: Non-toxic; inhibition [26]: Active; inhibition [27]: Active; Activity [28]: Time-dependent-effect; Activity [29]: Non-toxic; Activity [30]: Time-dependent-effect; inhibition [31]: Dose-dependent-effect; inhibition [32]: Dose-dependent-effect; Activity [3]: Active; Activity [33]: Non-toxic; Activity [4]: Active; Activity [34]: Dose-dependent-effect; Activity [35]: Time-dependent-effect; Activity [5]: inactive; Activity [36]: Non-toxic; Activity [37]: Non-toxic; Activity [38]: Dose-dependent-effect; Activity [39]: Non-toxic; Activity [40]: Non-toxic; Activity [41]: Non-toxic; Activity [42]: Dose-dependent-effect

Question: Which results are given for `CNC(=O)c1cc(Oc2ccc(NC(=O)Nc3ccc(Cl)c(C(F)(F)F)c3)cc2)ccn1` [SORAFENIB]?
Answer: Activity [43]: Toxic; Activity [44]: Non-toxic; Activity [45]: Non-toxic; Activity [46]: Toxic; Activity [47]: Non-toxic; Activity [48]: Non-toxic; Activity [3]: Active; Activity [49]: Active; Activity [50]: Non-toxic; half-life at 96 h [51]: 1310 min

Question: Which results are given for `Cc1nc(-c2ccc(OCC3CC3)cc2)sc1C(=O)O`?
Answer: Activity [1]: inactive; Activity [5]: inactive
